According to patent publication US8937065B2, “Compositions and methods for modulating a kinase” (Clevexel Pharma, priority 2011, dated 2015):

How the values were obtained:
[1] = tested on: JAK3 pathway; experiment: Cell based JAK3 pathway inhibition (STAT6-bla RA1 cells, IL-4 activated)
Experimental: 32 μL of the cell suspension (25,000 cells) was added to each well of a 384-well TC-Treated assay plate. Cells in Assay Media were incubated for 16-24 hours in the plate at 37° C./5% CO2 in a humidified incubator. 4 μL of a 10× serial dilution of a compound of the invention was added to appropriate wells of the plate and pre-incubated at 37° C./5% CO2 in a humidified incubator with cells for 30 minutes. 4 μL of 10× control activator IL-4 at the predetermined EC80 concentration was added to wells containing the compound of the invention. The plate was incubated for 5 hours at 37° C./5% CO2 in a humidified incubator. 8 μL of 1 μM Substrate Loading Solution was added to each well and the plate was incubated for 2 hours at room temperature. The plate was read on a fluorescence plate reader.

[2] = tested on: IL-2 stimulated PBMCs; experiment: IL-2-stimulated proliferation of PBMC (Cell Titer Glo); conditions: read-out: IC50 T cells outcome-based: IL-2 stimulated PBMCs Proliferation
Experimental: Fresh blood collection and PBMC separation assay • 1. Three donors were used to collect enough blood samples. The fresh blood was stored in Heparin Sodium tubes. • 2. Transferred blood to 50 ml centrifugal tube. 15 ml of blood was put into a tube. • 3. Added same volume of DPBS into the blood tube and mixed gently. • 4. Slowly underlayed 10 ml Ficoll using pipette (being careful to not disturb the 2 phases). • 5. Centrifuged 30 min at 800 g at RT without break. • 6. Aspirated the buffy coat (containing PBMC) at the interface between serum and ficoll. The PBMC was washed by enough DPBS and centrifuged at 900 g to remove the Ficoll. • 7. Added RPMI-1640 Medium to the collected PBMC and counted the concentration of PBMC. At least 1 million of PBMC were separated from 1 ml of blood.
IL-2-induced proliferation of PBMC by Cell Titer Glow assay • 1. Counted the PBMC numbers and adjusted cell density to 1.0*10^6/ml. • 2. Seeded cells in complete RPMI in the presence of PHA (phytohemagglutinin, 10 ug/ml). • 3. Added 100 μl of cell suspension to the 96-well plate (white) according to the planned plate map. So there were 1.0*10^5 cells in each well. Cultured for 3 days. • 4. Replaced media with complete RPMI plus IL-2, 100 units/ml and compounds, e.g compounds were added only at IL-2 incubation step. Cultured for 2 days. • 5. […] Recorded luminescence with Flexstation 3 and export the data.

[3] = tested on: CYP; experiment: CYP inhibition; assay type: in vitro ADME
[4] = molecular target: T1, JAK3 (Homo sapiens, UniProt P52333); experiment: JAK3 enzymatic activity assay (Z'-LYTE Biochemical Kinase Assay, 2 hr preincubation at 4° C.); conditions: cell-free
T1 construct: purchased Invitrogen, Madison, Wis
T1 sequence (P52333 1-1124): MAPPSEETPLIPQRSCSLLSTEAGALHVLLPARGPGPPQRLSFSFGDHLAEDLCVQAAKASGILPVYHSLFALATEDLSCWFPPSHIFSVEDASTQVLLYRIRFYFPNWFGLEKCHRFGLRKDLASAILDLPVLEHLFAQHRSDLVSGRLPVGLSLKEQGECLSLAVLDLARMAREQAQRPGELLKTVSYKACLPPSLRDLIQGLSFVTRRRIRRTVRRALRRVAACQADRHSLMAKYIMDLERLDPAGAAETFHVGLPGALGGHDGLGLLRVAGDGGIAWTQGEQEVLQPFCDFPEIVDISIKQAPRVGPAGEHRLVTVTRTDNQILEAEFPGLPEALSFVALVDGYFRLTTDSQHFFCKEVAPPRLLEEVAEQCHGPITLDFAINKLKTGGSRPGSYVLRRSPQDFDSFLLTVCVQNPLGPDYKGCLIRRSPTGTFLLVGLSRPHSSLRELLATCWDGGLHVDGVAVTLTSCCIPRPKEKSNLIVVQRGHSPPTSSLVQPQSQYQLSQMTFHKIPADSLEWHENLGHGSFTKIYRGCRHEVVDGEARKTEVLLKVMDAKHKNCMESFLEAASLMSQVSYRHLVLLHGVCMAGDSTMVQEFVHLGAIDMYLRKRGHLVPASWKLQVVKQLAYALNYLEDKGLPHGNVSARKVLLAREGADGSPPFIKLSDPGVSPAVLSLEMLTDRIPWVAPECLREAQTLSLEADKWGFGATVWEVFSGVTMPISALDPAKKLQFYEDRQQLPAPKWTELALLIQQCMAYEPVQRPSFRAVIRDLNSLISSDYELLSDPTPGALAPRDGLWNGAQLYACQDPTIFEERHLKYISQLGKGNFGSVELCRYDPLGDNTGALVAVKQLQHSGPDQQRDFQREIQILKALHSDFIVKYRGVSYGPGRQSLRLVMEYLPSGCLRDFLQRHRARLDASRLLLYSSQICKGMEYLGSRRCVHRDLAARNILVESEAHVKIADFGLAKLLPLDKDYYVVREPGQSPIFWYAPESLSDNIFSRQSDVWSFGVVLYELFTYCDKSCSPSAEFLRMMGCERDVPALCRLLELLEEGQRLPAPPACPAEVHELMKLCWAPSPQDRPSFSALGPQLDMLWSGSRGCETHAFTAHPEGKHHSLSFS

## O=C(CN1CCOCC1)Nc1cccc(-c2nc(-c3c[nH]c(C(=O)N4CCCC4)c3)cs2)c1 [7A, 2-morpholino-N-(3-(4-(5-(pyrrolidine-1-carbonyl)-1H-pyrrol-3-yl)thiazol-2-yl)phenyl)acetamide]
[1]; STAT6-bla RA1 cells, IL-4 at EC80
  IC50: 110 to 1000 nM
[1]; cell based JAK3 pathway inhibition, maximal inhibition, read-out: Max % Inh
  Emax: 75%
[2]
  IC50: 3000 to 6000 nM
[3]
  CYP inhibition: >10
[4]
  Ki: 0.795 µM
